PubChem BioAssay (NCI)
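Assay format: 96-well plates, 48-hour exposure. GI50 = concentration required for 50% inhibition of growth. TGI is the concentration that stops growth completely.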

Tests used:
Test in all cases: DTP human tumour cell line panel, 48 h
[1] = system: UACC-257 melanoma
[2] = system: MOLT-4 leukemia
[3] = system: SF-539 CNS
[4] = system: K-562 leukemia
[5] = system: MDA-MB-231 breast
[6] = system: RPMI-8226 leukemia
[7] = system: SK-MEL-28 melanoma
[8] = system: OVCAR-8 ovarian
[9] = system: OVCAR-3 ovarian
[10] = system: SW-620 colon
[11] = system: IGROV1 ovarian
[12] = system: 786-0 renal
[13] = system: A549 NSCLC
[14] = system: RXF 393 renal
[15] = system: NCI-H23 lung
[16] = system: ACHN renal
[17] = system: CCRF-CEM leukemia
[18] = system: UO-31 renal
[19] = system: NCI-H226 lung
[20] = system: EKVX NSCLC
[21] = system: T-47D breast
[22] = system: SF-295 CNS
[23] = system: MDA-MB-435
[24] = system: HT29 colon
[25] = system: HOP-62 NSCLC
[26] = system: MCF7 breast
[27] = system: HOP-92 NSCLC
[28] = system: SNB-19 CNS
[29] = system: PC-3 prostate
[30] = system: DU-145 prostate
[31] = system: OVCAR-4 ovarian
[32] = system: OVCAR-5 ovarian
[33] = system: SK-OV-3 ovarian
[34] = system: HCT-116 colon
[35] = system: UACC-62 melanoma
[36] = system: LOX IMVI melanoma
[37] = system: NCI/ADR-RES ovarian
[38] = system: CAKI-1 renal
[39] = system: HCC-2998 colon
[40] = system: SR leukemia
[41] = system: HCT-15 colon
[42] = system: M14 melanoma
[43] = system: SK-MEL-2 melanoma
[44] = system: MALME-3M melanoma
[45] = system: COLO 205 colon
[46] = system: SK-MEL-5 melanoma
[47] = system: SN12C renal
[48] = system: MDA-MB-468 breast
[49] = system: TK-10 renal
[50] = system: KM12 colon
[51] = system: U251 CNS
[52] = system: A498 renal
[53] = system: SF-268 CNS
[54] = system: NCI-H460 lung
[55] = system: NCI-H522 lung
[56] = system: HL-60(TB) leukemia
[57] = system: HS 578T breast
[58] = system: BT-549 breast

In the case of `COc1ccc(C(=O)/C=C/c2c(F)cccc2Cl)cc1S(N)(=O)=O`, the GI50 [1] was 2.99 µM, the TGI [1] was 16.6 µM and the GI50 [2] was 2.41 µM. The TGI [2] was 7.58 µM, the GI50 [3] was 2.01 µM and the TGI [3] was 4.22 µM. For the same molecule, the GI50 [4] was 2.82 µM, the TGI [4] was 14.2 µM and the GI50 [5] was 2.88 µM. For the same molecule, the TGI [5] was 7.71 µM, the GI50 [6] was 2.57 µM and the TGI [6] was 8 µM. The GI50 [7] was 3.6 µM, the TGI [7] was 14 µM and the GI50 [8] was 3.01 µM. It also gave a TGI [8] of 12.3 µM, a GI50 [9] of 2.53 µM and a TGI [9] of 8.4 µM. For the same molecule, the GI50 [10] was 3.61 µM, the TGI [10] was 20.7 µM and the GI50 [11] was 2.8 µM. It also gave a TGI [11] of 10.4 µM, a GI50 [12] of 2.99 µM and a TGI [12] of 10.5 µM. It also gave a GI50 [13] of 2.38 µM, a TGI [13] of 10.1 µM and a GI50 [14] of 1.74 µM. It also gave a TGI [14] of 4.56 µM, a GI50 [15] of 3.04 µM and a TGI [15] of 10.8 µM. It also gave a GI50 [16] of 2.8 µM, a TGI [16] of 8.33 µM and a GI50 [17] of 2.59 µM. For the same molecule, the TGI [17] was 6.78 µM, the GI50 [18] was 2.94 µM and the TGI [18] was 11.9 µM. For the same molecule, the GI50 [19] was 3.23 µM, the TGI [19] was 12.3 µM and the GI50 [20] was 4.12 µM. For the same molecule, the TGI [20] was 14.4 µM, the GI50 [21] was 2.42 µM and the TGI [21] was 9.53 µM. For the same molecule, the GI50 [22] was 3.1 µM, the TGI [22] was 11 µM and the GI50 [23] was 3.39 µM. The TGI [23] was 15.7 µM, the GI50 [24] was 1.91 µM and the TGI [24] was 3.81 µM. For the same molecule, the GI50 [25] was 3.01 µM, the TGI [25] was 9.42 µM and the GI50 [26] was 2.19 µM. For the same molecule, the TGI [26] was 11.2 µM, the GI50 [27] was 3.58 µM and the TGI [27] was 15.3 µM. For the same molecule, the GI50 [28] was 4.24 µM, the TGI [28] was 15.2 µM and the GI50 [29] was 4.67 µM. For the same molecule, the TGI [29] was 19.7 µM, the GI50 [30] was 3.3 µM and the TGI [30] was 12.5 µM. For the same molecule, the GI50 [31] was 4.13 µM, the TGI [31] was 20.5 µM and the GI50 [32] was 3.02 µM. For the same molecule, the TGI [32] was 11.1 µM, the GI50 [33] was 5.36 µM and the TGI [33] was 17.1 µM. For the same molecule, the GI50 [34] was 1.76 µM, the TGI [34] was 3.78 µM and the GI50 [35] was 2.02 µM. It also gave a TGI [35] of 6.55 µM, a GI50 [36] of 1.61 µM and a TGI [36] of 3.34 µM. It also gave a GI50 [37] of 2.83 µM, a TGI [37] of 9.24 µM and a GI50 [38] of 4.07 µM. It also gave a TGI [38] of 13.9 µM, a GI50 [39] of 2.78 µM and a TGI [39] of 10.3 µM. It also gave a GI50 [40] of 1.41 µM, a TGI [40] of 5.61 µM and a GI50 [41] of 1.35 µM. It also gave a TGI [41] of 3.38 µM, a GI50 [42] of 2.62 µM and a TGI [42] of 10.6 µM. The GI50 [43] was 3.96 µM, the TGI [43] was 16.4 µM and the GI50 [44] was 3.99 µM. It also gave a TGI [44] of 16.4 µM, a GI50 [45] of 2.17 µM and a TGI [45] of 3.95 µM. It also gave a GI50 [46] of 3.06 µM, a TGI [46] of 12.3 µM and a GI50 [47] of 2.59 µM. The TGI [47] was 10.5 µM, the GI50 [48] was 1.47 µM and the TGI [48] was 4.12 µM. It also gave a GI50 [49] of 3.53 µM, a TGI [49] of 9.79 µM and a GI50 [50] of 2.59 µM. The TGI [50] was 6.66 µM, the GI50 [51] was 1.73 µM and the TGI [51] was 3.69 µM. The GI50 [52] was 15.9 µM, the TGI [52] was 32 µM and the GI50 [53] was 3.33 µM. For the same molecule, the TGI [53] was 16.7 µM, the GI50 [54] was 3.01 µM and the TGI [54] was over 100 µM. For the same molecule, the GI50 [55] was 1.67 µM, the TGI [55] was 3.51 µM and the GI50 [56] was 1.65 µM. It also gave a TGI [56] of 6.46 µM, a GI50 [57] of 6.43 µM and a TGI [57] of over 100 µM. It also gave a GI50 [58] of 2.72 µM and a TGI [58] of 8.63 µM.
